The record followed here is patent publication US8466311B2, “Neuroprotective compositions and methods” (Sanford-Burnham Medical Research Institute, priority 2006, dated 2013).

The test system of series [1] is ARE. Kind of series: ARE(GSTYa)-luciferase reporter in PC12h cells. Type of series: cell-based. Here is the method:
(1) pGL3-GSTYa ARE core-luciferase vector. […] The dsDNA thus obtained was inserted into the Mlu l and Bglll sites of the pGL3-promoter vector (Promega Co., Madison, Wis.).
Transient transfection and measurement of luciferase activity. PC12h cells or cerebrocortical cultures (E17, DIV21) were incubated for 5 h in EBSS containing 1 μg of a plasmid DNA plus Lipofectamine 2000 (Invitrogen, Carlsbad, Calif.). Transfection efficiency was normalized to β-galactosidase activity expressed by co-transfection with pSV-β-gal (Promega). For reporter gene assays, cells were transfected with 1 μg of the reporter construct [ARE(GSTYa)-luciferase] and 0.2 μg pSV-β-gal for 1 hour. […] Firefly luciferase activity and β-galactosidase activity in cell lysates were measured using a Luciferase System and β-Galactosidase Enzyme Assay System, respectively (Promega, Madison, Wis.).
Next, we examined the involvement of the Keap1/Nrf2 pathway more precisely by studying activation of the ARE. This transcription element responds to the Keap1/Nrf2 pathway; we monitored activation of the ARE by performing luciferase reporter gene assays using PC12h cells transfected with ARE(GSTYa)-luciferase (Alam et al., J. Biol. Chem. 274:26071-26077, 1999) in the presence or absence of an Nrf2 dominant-negative (DN) or Keap1 expression vector.
A general note: In a reporter assay the amount or activity of a reporter protein is the signal.

In series [2] the test system is HO-1 promoter. Nature of the series: HO-1 promoter luciferase reporter (pHO15luc) in HT22 cells. Type of series: cell-based, mouse. Here is the method: Cell cultures, transfection, and glutathione (GSH) measurement. […] Transfection was performed with Lipofectamine 2000 (Invitrogen). In the reporter gene assays, firefly luciferase activity in cell lysates was measured with a luminometer (Promega). Total GSH (reduced and oxidized) was determined as described (Lee et al., Biochem. Biophys. Res. Commun. 280:286-292, 2001).
NEPPs activate HO-1 transcription through the ARE. We next studied activation of the HO-1 promoter and ARE by NEPP. In order to examine the induction of HO-1 protein by NEPP11, various concentrations of NEPP11 were added to HT22 cells for 24 h. Thereafter, cell lysates (10 μg per lane) were subjected to SDS-PAGE and probed with anti-HO-1 or anti-β-actin. […] Next, we studied transcriptional activation of the HO-1 gene by NEPP11 in HT22 cells, a differentiated neuronal cell line, transfected with pHO15luc, a luciferase reporter construct under the control of a 15-kb mouse HO-1 promoter fragment. HT22 cells were transfected with reporter cDNAs (1 μg per well), and various concentrations of NEPP11 were added to the cultures. After a 24-h incubation, cell lysates were subjected to luciferase reporter assays. […] Gong et al. (Antioxid. Redox Signal. 4:249-257, 2002) had identified two enhancer regions, E1 and E2, located upstream of the transcriptin initiation site by approximately 4 and 10 kb that contained the elements responsible for activation by 15-deoxy-Δ^12,14-PGJ2 (Gong et al., Antioxid. Redox Signal. 4:249-257, 2002). To determine the role of the E1 and E2 enhancers, we expressed a mutant promoter construct lacking both enhancer sites [pHO15lucΔ(E1+E2)]. The mutant was only minimally responsive to NEPP11 (1.8-fold induction).
(§1) Because the E1 and E2 regions also contain other enhancer elements, we tested the effects of NEPP11 (2 μM) on the expression of luciferase activity derived from these elements, including the cAMP-responsive element (CRE; p3xCREluc), AP-1 binding site (p3xAP1luc), NF-κB binding site (p3xNF-κBluc), NFAT-binding site (p3xNFATluc), ETS-binding site (p3xETSluc), and MEF2-binding site (p3xMEF2luc).

Series [3] concerns AP-1 binding site. Nature of the series: Enhancer element luciferase reporter p3xAP1luc. Type of series: cell-based. As to conditions: NEPP11 2 μM. Here is the method:
as §1

Series [4] has as its system MEF2-binding site. Kind of series: Enhancer element luciferase reporter p3xMEF2luc. The class given is cell-based. To be noted: NEPP11 2 μM. Here is the method:
as §1

In series [5] the test system is Nrf2-GFP fusion protein. Nature of the series: Localization of Nrf2-GFP fusion protein in transfected HT22 cells. The class given is cell-based. As to conditions: NEPP11 2 μM, 24 h. As to the method:
Activation of the Keap1/Nrf2 pathway by NEPP compounds in a neuronal cell line. Next, we examined the localization of an Nrf2-Green Fluorescent Protein (GFP) fusion protein (Numazawa et al., Am. J. Physiol. 285:C334-C342, 2003) in transfected HT22 cells. HT22 cells transfected with pNrf2-GFP were treated with vehicle or NEPP11 (2 μM) for 24 h and observed under epifluorescence microscopy. […] Thus we hypothesized that nuclear levels of Nrf2 protein should increase when cells are exposed to an electrophile such as NEPP, which promotes nuclear translocation. To test this hypothesis, cytosolic and nuclear fractions (200 μg protein) from cells that had been treated with vehicle or 2 μM NEPP11 for 24 h were precipitated and probed with anti-Nrf2 antibody and with anti-NeuN, a neuronal-specific nuclear protein. Indeed, we confirmed this hypothesis.

In series [6] the test system is HO-1 protein. Kind of series: Induction of HO-1 protein in primary cortical cultures. The class given is cell-based, rat. Here is the method:
Immunoprecipitation, western blots, and immunofluorescence. These assays were performed as described (Gu et al., Science 297:1186-1190, 2002) by using the following antibodies: anti-HO-1 (SPA895, 1:1000, Santa Cruz Biotechnology), anti-Keap1 (1:100, Santa Cruz Biotechnology), or anti-actin (1:5,000, Oncogene Research Products, San Diego).
We reasoned that if, unlike other electrophiles (Kraft et al., J. Neurosci. 24:1101-1112, 2004), NEPPs accumulate predominantly in neurons, then HO-1 might be induced preferentially in this cell type. To check this possibility, we performed immunofluorescence studies with anti-HO-1 antibody after exposure to a potent NEPP compound. Cortical cultures (E17 and DIV14-21) treated with vehicle or NEPP11 (0.7 μM) were stained with anti-MAP-2 and anti-HO-1 and with Hoechst dye. In control cultures, non-neuronal cells expressed relatively more HO-1 at baseline than did neurons. […] To examine induction of HO-1 protein after exposure to NEPP, lysates (10 μg per lane) of primary cortical cultures treated with vehicle or NEPP11 for 24 h were probed with anti-HO-1 or anti-β-actin in immunoblots. […] The fold induction of HO-1 by NEPP11 was 2.2±0.25 (for 0.5 μM NEPP11) and 3.5±0.25 (for 1.0 μM NEPP11 as assessed by densitometry.
Cell Cultures, Transfection, and Glutathione (GSH) Measurement.

In the case of `CC(C)c1cc2c(c(O)c1O)[C@@]1(C(=O)O)CCCC(C)(C)[C@@H]1CC2` [CA, carnosic acid], the “ARE activation with co-transfection of Nrf2-DN or Keap1” value in series [1] (PC12h cells, CA) is on record as “significantly repressed”. Further, the “stimulation of ARE-based transcription” value in series [1] (PC12h cells, CA 10 μM) was over 10 fold. Also, in series [1] (equimolar basis, 20 h), the “ARE activation relative to sulforaphane” value is “to a much greater extent than sulforaphane”.

Consider `COC(=O)CCCCC/C=C1/C(=O)C=C[C@H]1CCCCCCc1ccc(C)cc1` [NEPP11], for which the “expression of HO-1 transcription (pHO15luc luciferase activity)” value in series [2] (HT22 cells, 24 h, dose-dependent) is given as “more than five-fold”. In addition, in series [2] (HT22 cells, construct lacking E1 and E2 enhancers), the “induction of mutant promoter pHO15lucΔ(E1+E2)” value turned out to be 1.8 fold. In addition, in series [2] (NEPP11 2 μM, used for comparison), the “induction of pHO15luc reporter activity” value is reported as “greater than five-fold”. In addition, the “activation of pHO15luc with co-transfection of pKeap1(C151S)” value in series [2] (not depressed by wild-type pKeap1) is on record as “significantly depressed”. Moreover, the “activity of p3xAP1luc” value in series [3] is on record as “slightly depressed”. Besides, the “activity of p3xMEF2luc” value in series [4] is reported as “no effect”. Also, the “localization of Nrf2-GFP” value in series [5] is “translocated into the nucleus”. Further, the “fold induction of HO-1 (densitometry)” value in series [6] (0.5 μM NEPP11, 24 h) is 2.2±0.25 fold; in series [6] (1.0 μM NEPP11, 24 h), 3.5±0.25 fold. Further, the HO-1 immunofluorescence result in series [6] (NEPP11 0.7 μM, E17 DIV14-21) is listed as “increased mainly in neurons”.
